Experimental data reported in patent US12390552B2, “Self-assembling peptide gel formulation and methods of use” (Arch Biosurgery, Inc., priority 2020, dated 2025).
“Also recorded” adds a separate entry of the source.

Experiments:
[1] = tested on: stomach and esophagus of pigs (submucosal space); assay: Submucosal cushion/lift and hemostasis in endoscopic resection procedures in a porcine model; assay type: in vivo
Procedure: Solutions of (RADA)4 (RADARADARADARADA; SEQ ID NO: 1) in water were prepared. Concentrations of (RADA)4 (SEQ ID NO: 1) were between from 1% and 3% w/v. Methylene blue or indigo carmine dye (0.1 to 0.4%) was added to the solution in some experiments, and excluded from the solution in other experiments.
Pigs were randomly assigned to control or experimental groups. Animals were anesthetized. Multiple (>20) endoscopic procedures (EMD and ESD) were performed in different areas of the stomach of pigs, including the pylorus, and the esophagus, including the sphincter. In some experiments, polyps had previously been created by applying bands to the mucosa.
The (RADA)4 (SEQ ID NO: 1) solutions (experimental animals) or saline or ELEVIEW™ (control animals) were administered into the submucosal space through 2.2 mm channel diameter, 230 cm long catheters that have either 25 gauge needle tips or spray tips on the end to form a cushion. In some experiments, catheters having different diameters were used as well as multiple internal channels. The products were delivered from a prefilled syringe or mixed from a kit prior to delivery.

[2] = Gel formation of (RADA)4 solutions mixed with dextran sulfate solution; assay type: physicochemical; conditions: 1%-3% solutions mixed with dextran sulfate solution (0.5 and 1%)

**Q.** Which results are given for RADARADARADARADA [(RADA)4]?
**A.** duration of submucosal lift ([1]; pig gastric antrum, delivered through 25G endoscopic injection needle): > 2 h; use with clips as sealant at post-polypectomy site ([1]; pig, applied following application of clips): useful in conjunction with clips as a potential sealant; hemostasis in actively bleeding lesions ([1]; pig, applied topically or injected into mucosa near the bleeding site, with or without visualizing agent): provide hemostasis in actively bleeding lesions; also recorded: stopped bleeding promptly, typically within seconds; durability of cushions versus controls ([1]; pig, compared with ELEVIEW™ and saline): lasting longer than ELEVIEW™ and saline controls; bleeding after polyp removal / tissue resection ([1]; pig, submucosal injection before dissection (prophylactic hemostasis)): no visible bleeding was observed following polyp removal; also recorded: minimal to no bleeding in most lesions was observed; time over which the tunnel opening could easily be found after removing and reinserting equipment ([1]; pig, submucosal tunnel through cushion): typically more than an hour; gel formation [2]: formed space occupying gels
